Values quoted from earlier work as cited in patent US20070098643A1, “Oligomers of gadolinium chelates, their applicationascontrast products in magnetic resonance imaging and their synthesis intermediates” (priority 2002, published 2007).

How the values were obtained:
[1] = test system: benign and malignant breast tumors; settings: in this model; Daldrup-Link et al. 2000
[2] = in vivo

Gadomer-17
differentiation of benign from malignant tumors in MRI [1]: does not allow such a differentiation | C5/C0 ratio [2]: 21% | distribution volume [2]: 130 mL/kg | plasma half-life [2]: 37 min | total plasma clearance [2]: 0.486 L/h/kg
